Measurements reported in US12018253B2, “Method of detecting Polycomb Repressive Complex activity” (IMBA—INSTITUT FÜR MOLEKULARE BIOTECHNOLOGIE GMBH, priority 2017, dated 2024).
Non-standard residues stand in square brackets, D forms with d. Residues, ends and D or L forms follow the SMILES beside them. *: point of attachment. Benzoyl(4-tBu) = CC(C)(C)c1ccc(C(=O)*)cc1; Lys(Et2) = CCN(CC)CCCC[C@H](N)C(=O)O

Columns and labels:
cPRC1-TetO-mESCs = assay: Chemical inhibition in cPRC1-TetO-mESCs (TetR-Cbx7 dual GFP/BFP reporter), flow cytometry without and with Dox; assay type: cell-based, mouse; details: for initiation of reporter gene silencing: TetR-Cbx7 tethered, absence of Dox; for maintenance of reporter gene silencing (repression): presence of Dox (1 μg/ml), increasing concentrations of compound
PRC2 = biological target: T1, PRC2 (Mus musculus, UniProt Q61188); assay: Immuno blot of H3K27me3, Ezh2 and Cbx7 in parental TetO-mESCs treated with GSK126; assay type: cell-based
T1 construct: endogenous in cells; host or cells: parental TetO-mESCs (mouse embryonic stem cells derived from haploid mESCs)
T1 sequence (Q61188 whole entry): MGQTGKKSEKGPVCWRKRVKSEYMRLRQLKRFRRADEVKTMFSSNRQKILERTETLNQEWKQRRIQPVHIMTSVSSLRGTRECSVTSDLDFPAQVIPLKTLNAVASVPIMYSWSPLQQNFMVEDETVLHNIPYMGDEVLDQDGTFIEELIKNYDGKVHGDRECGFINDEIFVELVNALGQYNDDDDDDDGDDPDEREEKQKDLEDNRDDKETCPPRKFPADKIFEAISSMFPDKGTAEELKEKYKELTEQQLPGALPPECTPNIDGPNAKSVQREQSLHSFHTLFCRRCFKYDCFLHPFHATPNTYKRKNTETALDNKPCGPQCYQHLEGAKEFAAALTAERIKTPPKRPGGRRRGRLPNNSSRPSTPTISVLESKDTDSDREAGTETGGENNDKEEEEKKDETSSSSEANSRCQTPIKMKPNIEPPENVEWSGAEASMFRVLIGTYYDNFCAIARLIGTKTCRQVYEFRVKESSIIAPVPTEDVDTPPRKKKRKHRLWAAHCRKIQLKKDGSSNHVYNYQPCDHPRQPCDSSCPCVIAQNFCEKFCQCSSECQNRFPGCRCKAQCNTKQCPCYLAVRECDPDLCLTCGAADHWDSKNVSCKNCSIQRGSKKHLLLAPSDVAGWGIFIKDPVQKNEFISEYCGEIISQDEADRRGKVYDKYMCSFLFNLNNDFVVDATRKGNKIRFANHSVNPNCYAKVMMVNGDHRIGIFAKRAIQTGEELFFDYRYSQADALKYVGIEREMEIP
T1 sequence (Q921E6 whole entry partner): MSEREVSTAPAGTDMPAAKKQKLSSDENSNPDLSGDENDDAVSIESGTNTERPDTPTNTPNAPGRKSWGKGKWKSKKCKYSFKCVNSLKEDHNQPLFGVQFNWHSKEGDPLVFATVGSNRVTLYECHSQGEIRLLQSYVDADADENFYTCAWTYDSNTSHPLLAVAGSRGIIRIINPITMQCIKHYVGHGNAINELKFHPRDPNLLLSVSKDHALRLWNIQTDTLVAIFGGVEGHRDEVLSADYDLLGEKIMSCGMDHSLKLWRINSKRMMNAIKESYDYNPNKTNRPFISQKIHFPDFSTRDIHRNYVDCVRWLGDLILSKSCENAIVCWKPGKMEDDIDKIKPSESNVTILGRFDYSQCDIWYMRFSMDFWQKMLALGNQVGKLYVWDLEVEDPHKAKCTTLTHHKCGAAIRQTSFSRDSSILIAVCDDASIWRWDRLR
T1 sequence (Q80U70 whole entry partner): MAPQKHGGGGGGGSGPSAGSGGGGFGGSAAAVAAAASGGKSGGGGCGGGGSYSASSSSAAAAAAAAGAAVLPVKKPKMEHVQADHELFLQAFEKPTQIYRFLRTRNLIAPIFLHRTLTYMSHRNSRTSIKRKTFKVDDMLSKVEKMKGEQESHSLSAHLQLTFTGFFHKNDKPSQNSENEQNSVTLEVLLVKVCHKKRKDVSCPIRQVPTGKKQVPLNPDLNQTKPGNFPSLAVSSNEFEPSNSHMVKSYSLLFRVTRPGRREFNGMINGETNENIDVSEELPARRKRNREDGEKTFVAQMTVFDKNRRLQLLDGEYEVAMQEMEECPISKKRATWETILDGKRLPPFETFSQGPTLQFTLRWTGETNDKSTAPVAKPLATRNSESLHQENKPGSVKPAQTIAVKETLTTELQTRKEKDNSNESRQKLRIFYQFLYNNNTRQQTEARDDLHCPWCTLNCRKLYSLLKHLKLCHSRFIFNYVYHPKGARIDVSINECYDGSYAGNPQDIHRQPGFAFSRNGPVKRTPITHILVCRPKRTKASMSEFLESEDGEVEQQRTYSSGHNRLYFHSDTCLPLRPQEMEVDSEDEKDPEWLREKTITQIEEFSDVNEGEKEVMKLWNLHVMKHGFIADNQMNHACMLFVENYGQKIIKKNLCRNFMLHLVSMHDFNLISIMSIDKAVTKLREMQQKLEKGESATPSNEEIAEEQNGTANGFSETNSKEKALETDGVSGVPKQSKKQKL
T1 sequence (Q60972 whole entry partner): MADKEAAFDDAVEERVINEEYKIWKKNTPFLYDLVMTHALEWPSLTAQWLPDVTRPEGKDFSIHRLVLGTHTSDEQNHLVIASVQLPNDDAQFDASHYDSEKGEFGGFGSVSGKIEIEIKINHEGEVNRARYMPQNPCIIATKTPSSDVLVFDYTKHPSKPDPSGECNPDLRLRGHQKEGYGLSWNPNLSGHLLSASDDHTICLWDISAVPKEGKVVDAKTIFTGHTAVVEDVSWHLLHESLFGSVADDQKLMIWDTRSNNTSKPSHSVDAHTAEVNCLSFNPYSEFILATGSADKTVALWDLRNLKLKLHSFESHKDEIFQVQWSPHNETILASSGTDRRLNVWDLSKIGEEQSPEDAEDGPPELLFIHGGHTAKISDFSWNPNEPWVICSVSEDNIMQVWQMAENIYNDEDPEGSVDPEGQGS
Method: Nuclear extract from 10×10^6 mESCs was obtained by lysis in Buffer A (final: 25 mM Hepes ph 7.6, 5 mM MgCl2, 25 mM KCl, 0.05 mM EDTA, 10% Glycerol, 1 mM DTT, 1 mM PMSF, 1× Complete Mini protease inhibitor) followed by collection in RIPA buffer (final: 150 mM NaCl, 1% triton, 0.5% sodium deoxy-cholate, 0.1% SDS, 50 mM Tris pH 8.0). Nuclear extracts were homogenized by sonication in a Diagenode Bioruptor and concentration was determined by Bradford assay (Biorad). 20 μg/lane total protein was run on Novex Life Technology NuPAGE 4-12% Bis-Tris gels in Invitrogen NuPAGE MES SDS Running Buffer and transferred on a Merck Chemicals Immobilon-P Membrane (PVDF […]). The membrane was blocked (5% non-fat dry milk in 1×PBS, 0.1% Tween 20) and incubated with the following primary antibodies (5% non-fat dry milk in 1×PBS, 0.1% Tween 20): H3K27me3 (Diagenode, C15410195), Cbx7 (Abcam, ab21873), RYBP (Sigma, PRS2227), H2AK119ub (Cell Signaling, D27C4), Ezh2 (Active Motif, 39901). Finally, the membrane was incubated with corresponding secondary HRP coupled antibodies (5% non-fat dry milk in 1×PBS, 0.1% Tween 20), developed using Clarity Western ECL Substrate (Biorad) and imaged by a ChemiDoc XRS+ Imaging system (Biorad).

Row | SMILES | initiation of reporter gene silencing (cPRC1-TetO-mESCs) | maintenance of reporter gene silencing (repression) (cPRC1-TetO-mESCs) | reduction in silencing, distal BFP reporter compared with proximal GFP reporter (cPRC1-TetO-mESCs; presence of Dox) | H3K27me3 by Western blot (PRC2; GSK126-treated parental mESCs (4 μM per FIG. 10A)) | inhibition of the catalytic activity of PRC2 (PRC2; parental TetO-mESCs, 4 μM GSK126, immuno blot) | endogenous PRC2 and cPRC1 stability (PRC2; parental TetO-mESCs, 4 μM GSK126, immuno blot of Ezh2 and Cbx7)
1 | CCN(CC)CCCC[C@H](NC(=O)[C@H](CC(C)C)NC(=O)[C@H](C)NC(=O)[C@H](Cc1ccccc1)NC(=O)c1ccc(C(C)(C)C)cc1)C(=O)N[C@@H](CO)C(=O)OC [UNC3866] ({Benzoyl(4-tBu)}-FAL[Lys(Et2)]S-OMe) | Neither compound had a significant effect | disrupted only by UNC3866 treatment in a dose-dependent manner | – | – | – | –
2 | CC[C@H](C)n1cc(C)c2c(C(=O)NCc3c(C)cc(C)[nH]c3=O)cc(-c3ccc(N4CCNCC4)nc3)cc21 [GSK126] | did not disrupt | reduced by GSK126-treatment in a dose-dependent manner | more prominent at the distal BFP reporter than the proximal GFP promoter | undetectable | specific and reversible inhibition | without disrupting
